# Reference: PubChem BioAssay AID248 (DTP/NCI, 2004)
# Where “and” joins values, the source holds several entries; their conditions need not be identical. Identical values can stand only once. Toxic doses and inconclusive results are not listed.
# System: L1210 leukemia ip in BDF1 mice, survival T/C
# Experiment: NCI In Vivo Anticancer Drug Screen. Data for tumor model L1210 Leukemia (intraperitoneal) in B6D2F1 (BDF1) mice
# Details: endpoint: mean survival time, higher = longer survival
# Procedure, shortened: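 Transplanted-tumor mice were given test agent; controls received vehicle only. Survival readings from the two groups were divided (treated over control).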
# [1] = dose: 100.0 mg/kg/injection, schedule: Q04DX003 (ip), vehicle: Klucel (hydroxypropylcellulose) (HPC)
# [2] = dose: 200.0 mg/kg/injection, schedule: Q04DX003 (ip), vehicle: Klucel (hydroxypropylcellulose) (HPC)
# [3] = dose: 400.0 mg/kg/injection, schedule: Q04DX003 (ip), vehicle: Klucel (hydroxypropylcellulose) (HPC)
# [4] = dose: 100.0 mg/kg/injection, schedule: Q04DX003 (ip), vehicle: saline with Tween-80
# [5] = dose: 200.0 mg/kg/injection, schedule: Q04DX003 (ip), vehicle: saline with Tween-80
# [6] = dose: 400.0 mg/kg/injection, schedule: Q04DX003 (ip), vehicle: saline with Tween-80
# [7] = dose: 100.0 mg/kg/injection, schedule: Q01DX001 (ip), vehicle: saline with Tween-80
# [8] = dose: 200.0 mg/kg/injection, schedule: Q01DX001 (ip), vehicle: saline with Tween-80
# [9] = dose: 400.0 mg/kg/injection, schedule: Q01DX001 (ip), vehicle: saline with Tween-80
# [10] = dose: 12.5 mg/kg/injection, schedule: Q01DX009 (ip), vehicle: saline
# [11] = dose: 25.0 mg/kg/injection, schedule: Q01DX009 (ip), vehicle: saline
# [12] = dose: 50.0 mg/kg/injection, schedule: Q01DX009 (ip), vehicle: saline
# [13] = dose: 100.0 mg/kg/injection, schedule: Q01DX001 (ip), vehicle: saline
# [14] = dose: 100.0 mg/kg/injection, schedule: Q01DX009 (ip), vehicle: saline
# [15] = dose: 200.0 mg/kg/injection, schedule: Q01DX001 (ip), vehicle: saline
# [16] = dose: 100.0 mg/kg/injection, schedule: Q01DX001 (ip), vehicle: Klucel (hydroxypropylcellulose) (HPC)
# [17] = dose: 200.0 mg/kg/injection, schedule: Q01DX001 (ip), vehicle: Klucel (hydroxypropylcellulose) (HPC)
# [18] = dose: 400.0 mg/kg/injection, schedule: Q01DX001 (ip), vehicle: Klucel (hydroxypropylcellulose) (HPC)
# [19] = dose: 50.0 mg/kg/injection, schedule: Q04DX003 (ip), vehicle: saline with Tween-80
# [20] = dose: 200.0 mg/kg/injection, schedule: Q01DX009 (ip), vehicle: saline
# [21] = dose: 100.0 mg/kg/injection, schedule: Q01DX009 (ip), vehicle: saline with Tween-80
# [22] = dose: 200.0 mg/kg/injection, schedule: Q01DX009 (ip), vehicle: saline with Tween-80
# [23] = dose: 400.0 mg/kg/injection, schedule: Q01DX009 (ip), vehicle: saline with Tween-80
# [24] = dose: 50.0 mg/kg/injection, schedule: Q01DX001 (ip), vehicle: saline
# [25] = dose: 50.0 mg/kg/injection, schedule: Q04DX003 (ip), vehicle: saline
structure (smiles),measurement,setting,value
O=S(=O)(Cc1ccc(Cl)cc1)c1ccccc1-n1cccc1,T/C,[1],90 % of control
same,T/C,[2],92 % of control
same,T/C,[3],100 % of control
CCc1ccc(C(=O)CCCCl)cc1,T/C,[4],94 % of control
same,T/C,[5],100 % of control
same,T/C,[6],86 % of control
CN(C)C(=O)Sc1ccc(SC(=O)N(C)C)cc1,T/C,[7],97 % of control
same,T/C,[8],97 % of control
same,T/C,[9],97 % of control
Cc1nnc2c3ccccc3c(-c3ccccc3)nn12,T/C,"dose: 100.0 mg/kg/injection, schedule: Q01DX001 (ip), vehicle: carboxymethylcellulose (CMC)",104 % of control
same,T/C,"dose: 200.0 mg/kg/injection, schedule: Q01DX001 (ip), vehicle: carboxymethylcellulose (CMC)",106 % of control
CCOC(=O)c1cnc(C)[nH]c1=O,T/C,[10],100 % of control
same,T/C,[11],99 % of control
same,T/C,[12],94 % of control
same,T/C,[13],108 % of control
same,T/C,[14],101 % of control
same,T/C,[15],101 % of control
OCC1CCCCC1Cc1ccc(F)c2ccccc12 (stereo not given),T/C,[16],98 % of control
same,T/C,[17],93 % of control
same,T/C,[18],102 % of control
CCN(CC)CCOc1ccc(-c2ccccc2)cc1,T/C,[19],98 % of control
same,T/C,[4],277 % of control
CCOC(=O)CCN(C)C,T/C,[14],104 % of control
same,T/C,[20],101 % of control
same,T/C,"dose: 400.0 mg/kg/injection, schedule: Q01DX009 (ip), vehicle: saline",98 % of control
C#CC(=O)c1ccccc1,T/C,"dose: 4.7 mg/kg/injection, schedule: Q01DX009 (ip), vehicle: saline with Tween-80",94 % of control
same,T/C,"dose: 18.8 mg/kg/injection, schedule: Q01DX001 (ip), vehicle: saline",98 % of control
same,T/C,"dose: 37.5 mg/kg/injection, schedule: Q01DX001 (ip), vehicle: saline",104 % of control
CC1CC(C)(C)N=C(C(Cc2ccccc2)CC(O)c2ccccc2)O1 (stereo not given),T/C,"dose: 25.0 mg/kg/injection, schedule: Q04DX003 (ip), vehicle: saline with Tween-80",94 % of control
same,T/C,[19],92 % of control
same,T/C,[4],86 % of control and 90 % of control
COc1ccccc1C1CCCC2C(Oc3ccc([N+](=O)[O-])cc3)OC12 (stereo not given),T/C,"dose: 50.0 mg/kg/injection, schedule: Q01DX009 (ip), vehicle: saline with Tween-80",87 % of control
same,T/C,[21],100 % of control
Cc1c(Cl)cccc1NC(=O)OCCCc1ccccc1,T/C,[7],93 % of control
same,T/C,[21],101 % of control and 104 % of control
same,T/C,"dose: 100.0 mg/kg/injection, schedule: Q04DX002 (ip), vehicle: saline with Tween-80",96 % of control and 108 % of control
same,T/C,[4],102 % of control
same,T/C,[8],93 % of control
same,T/C,[22],93 % of control and 96 % of control
same,T/C,"dose: 200.0 mg/kg/injection, schedule: Q04DX002 (ip), vehicle: saline with Tween-80",108 % of control and 121 % of control
same,T/C,[5],89 % of control
same,T/C,[9],90 % of control
same,T/C,[23],98 % of control and 90 % of control
same,T/C,"dose: 400.0 mg/kg/injection, schedule: Q04DX002 (ip), vehicle: saline with Tween-80",97 % of control and 101 % of control
same,T/C,[6],91 % of control
CCCCCCCCCCCCC(CCCCCCCCCCCC)c1ccccc1,T/C,[16],112 % of control
same,T/C,[17],100 % of control
same,T/C,[18],96 % of control
CCC(Cl)COP(=O)(OCC(Cl)CC)OC(CC)P(=O)(OCC(Cl)CC)OCC(Cl)CC (stereo not given),T/C,[1],93 % of control
same,T/C,[2],93 % of control
same,T/C,[3],95 % of control
N#CC(OC(=O)c1ccccc1)c1ccccc1 (stereo not given),T/C,"dose: 75.0 mg/kg/injection, schedule: Q01DX001 (ip), vehicle: other",104 % of control
same,T/C,"dose: 150.0 mg/kg/injection, schedule: Q01DX001 (ip), vehicle: other",105 % of control
Nc1ccc(P(=O)(O)c2ccc(N)cc2)cc1,T/C,"dose: 75.0 mg/kg/injection, schedule: Q01DX001 (ip), vehicle: carboxymethylcellulose (CMC)",94 % of control
same,T/C,"dose: 150.0 mg/kg/injection, schedule: Q01DX001 (ip), vehicle: carboxymethylcellulose (CMC)",97 % of control
same,T/C,"dose: 300.0 mg/kg/injection, schedule: Q01DX001 (ip), vehicle: carboxymethylcellulose (CMC)",103 % of control
COC(=O)C1CCN(Cc2ccccc2)CC1=O (stereo not given),T/C,[24],110 % of control
same,T/C,[13],104 % of control
same,T/C,[15],104 % of control
same,T/C,"dose: 400.0 mg/kg/injection, schedule: Q01DX001 (ip), vehicle: saline",104 % of control
NNC(=O)C12CCCCC1CCC2 (stereo not given),T/C,"dose: 100.0 mg/kg/injection, schedule: Q01DX009 (ip), vehicle: acetone",88 % of control
same,T/C,"dose: 100.0 mg/kg/injection, schedule: Q04DX003 (ip), vehicle: acetone",100 % of control
same,T/C,"dose: 200.0 mg/kg/injection, schedule: Q04DX003 (ip), vehicle: acetone",100 % of control
same,T/C,"dose: 400.0 mg/kg/injection, schedule: Q01DX009 (ip), vehicle: acetone",87 % of control
same,T/C,"dose: 400.0 mg/kg/injection, schedule: Q04DX003 (ip), vehicle: acetone",105 % of control
COc1cc2c(cc1OC)C(=O)C(c1ccc3c(c1)OCO3)CC2 (stereo not given),T/C,"dose: 100.0 mg/kg/injection, schedule: Q01DX009 (ip), vehicle: water",102 % of control
same,T/C,"dose: 100.0 mg/kg/injection, schedule: Q04DX003 (ip), vehicle: water",94 % of control
same,T/C,"dose: 200.0 mg/kg/injection, schedule: Q01DX009 (ip), vehicle: water",91 % of control
same,T/C,"dose: 200.0 mg/kg/injection, schedule: Q04DX003 (ip), vehicle: water",92 % of control
same,T/C,"dose: 400.0 mg/kg/injection, schedule: Q01DX009 (ip), vehicle: water",101 % of control
same,T/C,"dose: 400.0 mg/kg/injection, schedule: Q04DX003 (ip), vehicle: water",94 % of control
NCCCOc1ccc([N+](=O)[O-])cc1,T/C,[24],100 % of control
same,T/C,[12],104 % of control and 109 % of control
same,T/C,[25],95 % of control
same,T/C,[13],101 % of control
same,T/C,[14],102 % of control and 107 % of control
same,T/C,"dose: 100.0 mg/kg/injection, schedule: Q04DX002 (ip), vehicle: saline",96 % of control and 89 % of control
same,T/C,"dose: 100.0 mg/kg/injection, schedule: Q04DX003 (ip), vehicle: saline",114 % of control
same,T/C,[15],100 % of control
same,T/C,[20],100 % of control
same,T/C,"dose: 200.0 mg/kg/injection, schedule: Q04DX002 (ip), vehicle: saline",93 % of control and 96 % of control
same,T/C,"dose: 200.0 mg/kg/injection, schedule: Q04DX003 (ip), vehicle: saline",106 % of control
CCCC(F)C(=O)OCC (stereo not given),T/C,[21],108 % of control
same,T/C,[4],98 % of control
same,T/C,[22],94 % of control
same,T/C,[5],96 % of control
same,T/C,[23],87 % of control
same,T/C,[6],106 % of control
Nc1c(Cl)ncnc1NCCCCCO,T/C,[1],100 % of control
same,T/C,[2],94 % of control
same,T/C,[3],107 % of control
CCN(CC)CC(=O)NCC(CCCN1CCCCC1)(c1cccc2ccccc12)C(C)C (stereo not given),T/C,[10],91 % of control
same,T/C,"dose: 12.5 mg/kg/injection, schedule: Q04DX003 (ip), vehicle: saline",98 % of control
same,T/C,[11],90 % of control
same,T/C,"dose: 25.0 mg/kg/injection, schedule: Q04DX003 (ip), vehicle: saline",95 % of control
same,T/C,[12],86 % of control
same,T/C,[25],96 % of control
CC1(C)OCC(C2OC(C)(C)OC2C2COC(C)(C)O2)O1 (stereo not given),T/C,"dose: 87.5 mg/kg/injection, schedule: Q04DX002 (ip), vehicle: saline",100 % of control
same,T/C,"dose: 175.0 mg/kg/injection, schedule: Q04DX002 (ip), vehicle: saline",97 % of control
same,T/C,"dose: 350.0 mg/kg/injection, schedule: Q04DX002 (ip), vehicle: saline",93 % of control
